# Assays:
# [1] = test system: chronic heart failure-induced rats (abdominal aorta-to-inferior vena cava fistula); experiment: M-mode echocardiography in aortocaval fistula rat model of chronic heart failure; assay type: in vivo, Sprague-Dawley rats; details: CHF rats, 30 mg/kg orally for 8 weeks, mean±SD
# Method: (§1) Male Sprague-Dawley rats, weighing 220-240 g, were randomly divided into three groups: a normal control group (Normal), a heart failure control group (CHF) and a treatment group (CHF plus cpd.1), each group consisting of seven rats. The pyrazolopyrimidinone derivative was orally administered to heart failure-developed animals of the treatment group in a dose of 30 mg/kg. Normal control animals were subjected to a sham operation. […] After 8 weeks, 5 ml/kg of a solvent was orally administered to the normal control and heart failure control groups for 8 weeks, and the pyrazolopyrimidinone derivative was orally administered to the treatment group at a dose of 30 mg/kg for 8 weeks. Then, rats were anesthetized with pentobarbital (50 mg/kg, i.p.), and subjected to M-mode echocardiography in order to evaluate interventricular septum wall thickness (IWT) at end-systole (S) and end-diastole (D) of the left ventricle, posterior left ventricular wall thickness (PWT), left ventricular end-systolic dimension (LVESD), and left ventricular end-diastolic dimension (LVEDD). The relative wall thickness (RWT) was calculated according to the following equation: [IWT(D)+PWT(D)]/LVEDD, and is given in Table 1, below.
# [2] = test system: atrial natriuretic peptide (ANP); experiment: Serum atrial natriuretic peptide (ANP) levels in heart failure rats; assay type: in vivo, Sprague-Dawley rats; details: CHF rats, 30 mg/kg orally for 8 weeks; mean±SD; CHF control 0.040±0.004, normal 0.029±0.003
# Method: (§2) Male Sprague-Dawley rats, weighing 220-240 g, were randomly divided into three groups: a normal control group
# (§3) (Normal), a heart failure control group (CHF) and a treatment group (CHF plus cpd.1), each group consisting of seven rats. The pyrazolopyrimidinone derivative was orally administered to heart failure-developed animals of the treatment group in a dose of 30 mg/kg.
# as §1, with “Normal” for “Male Sprague-Dawley rats, weighing 220-240 g, were randomly divided into three groups: a normal control group (Normal), a heart failure control group (CHF) and a treatment group (CHF plus cpd.1), each group consisting of seven rats. The pyrazolopyrimidinone derivative was orally administered to heart failure-developed animals of the treatment group in a dose of 30 mg/kg. Normal”
# (§4) After the echocardiographic measurements, blood samples were collected from abdominal aortas to prepare serum samples. […] All values are expressed as mean±SD.
# [3] = test system: ANP mRNA; experiment: ANP mRNA levels in left ventricular tissue by RT-PCR; assay type: in vivo, Sprague-Dawley rats; details: CHF rats, 30 mg/kg orally for 8 weeks, mean±SD, CHF control 0.963±0.114, normal 0.607±0.169
# Method: as §2, §3
# as §1, with “Normal” for “Male Sprague-Dawley rats, weighing 220-240 g, were randomly divided into three groups: a normal control group (Normal), a heart failure control group (CHF) and a treatment group (CHF plus cpd.1), each group consisting of seven rats. The pyrazolopyrimidinone derivative was orally administered to heart failure-developed animals of the treatment group in a dose of 30 mg/kg. Normal”
# as §4
# [4] = test system: collagen deposition (ventricular fibrosis); experiment: Collagen deposition in left ventricular tissue (Masson's trichrome) as marker of ventricular fibrosis; assay type: in vivo, Sprague-Dawley rats; details: CHF rats, 30 mg/kg orally for 8 weeks, mean±SD, CHF control 0.928±0.228, normal 0.384±0.103
# Method: as §2, §3
# as §1, with “Normal” for “Male Sprague-Dawley rats, weighing 220-240 g, were randomly divided into three groups: a normal control group (Normal), a heart failure control group (CHF) and a treatment group (CHF plus cpd.1), each group consisting of seven rats. The pyrazolopyrimidinone derivative was orally administered to heart failure-developed animals of the treatment group in a dose of 30 mg/kg. Normal”
# as §4
# [5] = Physicochemical properties: pKa
# [6] = Physicochemical properties: solubility
# [7] = In vivo half-life compared to sildenafil; details: longer than sildenafil
# [8] = molecular target: phosphodiesterase-5 (PDE-5) (Homo sapiens, UniProt O76074); details: cited from earlier work
smiles,measurement,setting,value
"CCCOc1ccc(S(=O)(=O)NCCC2CCCN2C)cc1-c1nc2c(CCC)nn(C)c2c(=O)[nH]1 (stereo not shown) [cpd.1, 5-[2-propyloxy-5-(1-methyl-2-pyrrolidinyleneamidosulfonyl)phenyl]-1-methyl-propyl-1,6-dihydro-7H-pyrazolo(4,3-d)pyrimidine-7-one]","RWT, relative wall thickness [IWT(D)+PWT(D)]/LVEDD","[1]; CHF control 0.34 ± 0.02, normal 0.42 ± 0.05",0.42 ± 0.05
same,"IWT(D), interventricular septum wall thickness at end-diastole","[1]; CHF control 1.56 ± 0.09, normal 1.81 ± 0.20",1.74 ± 0.13 mm
same,"PWT(D), posterior left ventricular wall thickness at end-diastole","[1]; CHF control 1.64 ± 0.11, normal 1.83 ± 0.13",1.78 ± 0.04 mm
same,"PWT(S), posterior left ventricular wall thickness at end-systole","[1]; CHF control 2.54 ± 0.18, normal 2.89 ± 0.15",2.80 ± 0.10 mm
same,"IWT(S), interventricular septum wall thickness at end-systole","[1]; CHF control 2.56 ± 0.11, normal 2.83 ± 0.17",2.74 ± 0.11 mm
same,"LVESD, left ventricular end-systolic dimension","[1]; CHF control 6.20 ± 0.70, normal 5.43 ± 0.31",4.68 ± 0.38 mm
same,"LVEDD, left ventricular end-diastolic dimension","[1]; CHF control 9.75 ± 0.85, normal 8.69 ± 0.56",8.45 ± 0.62 mm
same,serum ANP levels,[2],0.033 ± 0.003 ng/mL
same,ANP mRNA levels in left ventricular tissues,[3],0.739±0.120
same,amount of collagen deposition in ventricular tissue,[4],0.604±0.214
same,pKa1,[5],about 6.5
same,pKa2,[5],about 12.5
same,"solubility in acetic acid, methanol and chloroform","[6]; acetic acid, methanol and chloroform",readily dissolved
same,solubility in water,[6]; water,difficult to dissolve in water
same,in vivo half-life relative to sildenafil,[7],3 times
same,inhibitory activity against PDE-5,[8],strong and selective inhibitory activity
